Activity calls are given as the source filed them. The rule behind the calls is not given here.
Assays:
[1] = target: Bcr/Abl fusion protein (Homo sapiens) (UniProt P00519+P11274); experiment: Inhibition of Bcr-Abl tyrosine phosphorylation in human KBM5 cells expressing T315I mutant at 1 to 10 nM in the presence of ponatinib measured after 24 hrs by western blot analysis; assay type: cell-based; settings: dose 1-10 nM
U-87 MG [2] = experiment: Antitumor activity against human U-87MG cells xenografted in BALB/c nu/nu mouse assessed as increase in activated caspase-3 expression at 25 mg/kg, ip administered every 2 days for 35 days by DAPI staining based immunofluorescence analysis; assay type: functional, organism-based; settings: U-87MG ATCC, time 35.0 day
MCF7 = experiment: Cytotoxicity against human MCF7 cells assessed as cell growth inhibition measured after 96 hrs; assay type: functional, cell-based; settings: MCF7, 96 h
[3] = Cytotoxicity against human U-343MG cells assessed as cell growth inhibition measured after 72 hrs by MTS colorimetric assay; assay type: functional, cell-based
KBM5 [4] = experiment: Potentiation of ponatinib-induced apoptosis human KBM5 cells expressing T315I mutant assessed as increase in apoptotic cells at 5 nM measured after 48 hrs by annexin V staining based flow cytometry analysis (reference value: 35 %); assay type: functional
Tubulin (Homo sapiens) [5] = target: T1, Tubulin (Homo sapiens) (UniProt P68371+Q9H4B7+P0DPH7+P68366+Q13509+Q71U36+P04350+Q3ZCM7+P07437+P68363+Q9BQE3+Q6PEY2+Q13885+Q9BVA1+Q9BUF5); experiment: Inhibition of [3H]Colchicine binding to tubulin (unknown origin) at 5 uM measured after 10 mins by DEAE-Cellulose filter method relative to control; assay type: protein-complex assay
[6] = target: T2, DNA topoisomerase 1 (Homo sapiens) (UniProt P11387); experiment: Inhibition of human recombinant topoisomerase I assessed as DNA cleavage using supercoiled pHOT1 plasmid DNA as substrate at 100 uM measured after 1 hr by agarose gel electrophoresis analysis
T2 sequence (whole entry): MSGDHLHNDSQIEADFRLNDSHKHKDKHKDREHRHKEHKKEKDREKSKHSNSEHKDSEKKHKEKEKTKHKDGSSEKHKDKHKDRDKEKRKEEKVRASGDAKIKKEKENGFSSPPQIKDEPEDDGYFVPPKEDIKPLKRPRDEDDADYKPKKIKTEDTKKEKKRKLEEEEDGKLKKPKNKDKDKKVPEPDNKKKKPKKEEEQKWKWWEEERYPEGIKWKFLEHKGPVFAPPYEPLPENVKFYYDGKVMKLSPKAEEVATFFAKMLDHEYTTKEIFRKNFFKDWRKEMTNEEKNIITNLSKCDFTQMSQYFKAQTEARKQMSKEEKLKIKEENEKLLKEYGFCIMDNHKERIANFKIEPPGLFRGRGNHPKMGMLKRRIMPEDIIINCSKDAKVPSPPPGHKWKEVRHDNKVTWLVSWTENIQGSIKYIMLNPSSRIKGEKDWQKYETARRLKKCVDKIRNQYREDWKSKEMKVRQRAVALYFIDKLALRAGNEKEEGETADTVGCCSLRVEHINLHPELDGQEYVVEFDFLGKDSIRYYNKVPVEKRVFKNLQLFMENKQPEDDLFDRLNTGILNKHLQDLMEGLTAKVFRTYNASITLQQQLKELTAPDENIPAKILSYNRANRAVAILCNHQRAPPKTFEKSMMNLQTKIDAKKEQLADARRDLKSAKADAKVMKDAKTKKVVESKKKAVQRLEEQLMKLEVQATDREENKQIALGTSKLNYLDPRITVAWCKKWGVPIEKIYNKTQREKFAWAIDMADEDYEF

U-87 MG [7] = experiment: Antitumor activity against human U-87MG cells xenografted in BALB/c nu/nu mouse assessed as reduction in Bcl2 protein expression at 25 mg/kg, ip administered every 2 days for 35 days by DAPI staining based immunofluorescence analysis; assay type: functional, organism-based; settings: U-87MG ATCC, time 35.0 day
U-87 MG [8] = experiment: Antitumor activity against human U-87MG cells xenografted in BALB/c nu/nu mouse assessed as reduction in tumor weight at 25 mg/kg, ip administered every 2 days for 35 days; assay type: functional, organism-based; settings: U-87MG ATCC, time 35.0 day
U-87 MG [9] = experiment: Cytotoxicity against human U-87MG cells assessed as cell growth inhibition measured after 48 hrs by MTS colorimetric assay; assay type: functional, cell-based, U-87MG ATCC
KBM5 [10] = experiment: Induction of apoptosis in human KBM5 cells expressing T315I mutant assessed as increase in cytochrome C expression at 1 to 10 uM measured after 24 hrs by western blot analysis; assay type: functional, cell-based; settings: dose 1-10 µM
KU812 cell line = experiment: Potentiation of ponatinib-induced apoptosis in human KU812 cells assessed as increase in apoptotic cells at 5 nM measured after 48 hrs by annexin V staining based flow cytometry analysis; assay type: functional, cell-based
KBM5 [11] = experiment: Cytotoxicity against Imatinib mesylate sensitive wild-type human KBM5 cells assessed as cell growth inhibition measured after 48 hrs by MTT assay; assay type: functional, cell-based; settings: KBM5, 48 h
KBM5 [12] = experiment: Potentiation of ponatinib-induced mitochondrial membrane depolarization in human KBM5 cells expressing T315I mutant at 5 nM in the presence of ponatinib measured upto 48 hrs by JC-1 staining based flow cytometry analysis (Rvb= 32.7 %); assay type: functional; settings: time hrs <=48
U-87 MG [13] = experiment: Cytotoxicity against human U-87MG cells assessed as cell growth inhibition by measuring maximum efficacy measured after 48 hrs by MTS colorimetric assay relative to control; assay type: functional, U-87MG ATCC
SW480 = experiment: Cytotoxicity against human SW480 cells assessed as cell growth inhibition measured after 48 hrs by XTT dye based assay; assay type: functional; settings: SW480, 48 h
KBM5 [14] = experiment: Potentiation of ponatinib-induced apoptosis human KBM5 cells assessed as increase in apoptotic cells at 5 nM measured after 48 hrs by annexin V staining based flow cytometry analysis; assay type: functional, cell-based
[15] = Cytotoxicity against human U343MG cells assessed as cell growth inhibition by measuring maximum efficacy measured after 72 hrs by MTS colorimetric assay relative to control; assay type: functional; settings: U-343MG
U-87 MG [16] = experiment: Antitumor activity against human U-87MG cells xenografted in BALB/c nu/nu mouse assessed as reduction in GFAP expression at 25 mg/kg, ip administered every 2 days for 35 days by DAPI staining based immunofluorescence analysis; assay type: functional, organism-based; settings: U-87MG ATCC, time 35.0 day
SW-620 = experiment: Cytotoxicity against human SW-620 cells assessed as cell growth inhibition measured after 48 hrs by XTT dye based assay; assay type: functional; settings: SW-620, 48 h
KBM5 [17] = experiment: Cytotoxicity against imatinib mesylate resistant wild-type human KBM5 cells expressing T315I mutant assessed as cell growth inhibition measured after 48 hrs by MTT assay; assay type: functional, cell-based; settings: KBM5, 48 h
U-87 MG [18] = experiment: Antitumor activity against human U-87MG cells xenografted in BALB/c nu/nu mouse assessed as reduction in CD133 marker expression at 25 mg/kg, ip administered every 2 days for 35 days by DAPI staining based immunofluorescence analysis; assay type: functional, organism-based; settings: U-87MG ATCC, time 35.0 day
U-87 MG [19] = experiment: Antitumor activity against human U-87MG cells xenografted in BALB/c nu/nu mouse assessed as reduction in tumor volume at 25 mg/kg, ip administered every 2 days for 35 days; assay type: functional, organism-based; settings: U-87MG ATCC, time 35.0 day
Tubulin (Homo sapiens) [20] = target: T1, Tubulin (Homo sapiens); experiment: Inhibition of [3H]Colchicine binding to tubulin (unknown origin) at 1 uM measured after 10 mins by DEAE-Cellulose filter method relative to control; assay type: protein-complex assay
KBM5 [21] = experiment: Induction of apoptosis in human KBM5 cells expressing T315I mutant assessed as decrease in […] expression at 1 to 10 uM measured after 24 hrs by Western blot analysis; assay type: functional, cell-based; settings: dose 1-10 µM

Chain of Bcr/Abl fusion protein (Homo sapiens) (P00519 whole entry, looked up, the tested form may be a part): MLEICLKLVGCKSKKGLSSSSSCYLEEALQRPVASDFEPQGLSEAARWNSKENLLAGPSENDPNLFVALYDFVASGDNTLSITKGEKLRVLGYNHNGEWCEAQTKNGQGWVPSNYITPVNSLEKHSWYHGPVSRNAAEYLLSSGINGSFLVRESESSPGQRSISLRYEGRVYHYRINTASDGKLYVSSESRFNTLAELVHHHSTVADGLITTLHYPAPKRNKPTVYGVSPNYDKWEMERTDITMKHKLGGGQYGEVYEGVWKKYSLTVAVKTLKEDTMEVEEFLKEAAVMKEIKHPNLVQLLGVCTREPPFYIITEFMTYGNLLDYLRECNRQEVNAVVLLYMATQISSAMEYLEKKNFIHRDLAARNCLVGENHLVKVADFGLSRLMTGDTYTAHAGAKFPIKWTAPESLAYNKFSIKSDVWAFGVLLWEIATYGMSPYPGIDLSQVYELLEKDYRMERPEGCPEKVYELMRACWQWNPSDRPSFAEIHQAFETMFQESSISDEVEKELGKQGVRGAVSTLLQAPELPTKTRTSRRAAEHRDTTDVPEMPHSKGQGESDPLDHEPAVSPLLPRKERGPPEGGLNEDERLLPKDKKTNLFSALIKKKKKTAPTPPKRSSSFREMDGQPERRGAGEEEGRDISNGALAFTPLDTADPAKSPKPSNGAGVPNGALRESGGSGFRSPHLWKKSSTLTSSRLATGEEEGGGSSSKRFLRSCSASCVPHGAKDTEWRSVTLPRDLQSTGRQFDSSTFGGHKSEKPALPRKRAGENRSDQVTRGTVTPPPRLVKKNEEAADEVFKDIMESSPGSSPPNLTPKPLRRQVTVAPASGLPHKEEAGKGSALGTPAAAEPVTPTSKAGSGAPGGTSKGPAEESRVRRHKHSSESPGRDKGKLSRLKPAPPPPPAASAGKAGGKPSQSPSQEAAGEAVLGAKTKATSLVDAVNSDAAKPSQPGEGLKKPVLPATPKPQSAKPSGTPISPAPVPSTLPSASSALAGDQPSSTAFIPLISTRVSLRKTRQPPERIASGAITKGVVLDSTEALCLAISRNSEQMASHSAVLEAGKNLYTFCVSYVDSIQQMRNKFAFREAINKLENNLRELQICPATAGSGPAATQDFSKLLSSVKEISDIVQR
Chain of Bcr/Abl fusion protein (Homo sapiens) (P11274 whole entry, looked up, the tested form may be a part): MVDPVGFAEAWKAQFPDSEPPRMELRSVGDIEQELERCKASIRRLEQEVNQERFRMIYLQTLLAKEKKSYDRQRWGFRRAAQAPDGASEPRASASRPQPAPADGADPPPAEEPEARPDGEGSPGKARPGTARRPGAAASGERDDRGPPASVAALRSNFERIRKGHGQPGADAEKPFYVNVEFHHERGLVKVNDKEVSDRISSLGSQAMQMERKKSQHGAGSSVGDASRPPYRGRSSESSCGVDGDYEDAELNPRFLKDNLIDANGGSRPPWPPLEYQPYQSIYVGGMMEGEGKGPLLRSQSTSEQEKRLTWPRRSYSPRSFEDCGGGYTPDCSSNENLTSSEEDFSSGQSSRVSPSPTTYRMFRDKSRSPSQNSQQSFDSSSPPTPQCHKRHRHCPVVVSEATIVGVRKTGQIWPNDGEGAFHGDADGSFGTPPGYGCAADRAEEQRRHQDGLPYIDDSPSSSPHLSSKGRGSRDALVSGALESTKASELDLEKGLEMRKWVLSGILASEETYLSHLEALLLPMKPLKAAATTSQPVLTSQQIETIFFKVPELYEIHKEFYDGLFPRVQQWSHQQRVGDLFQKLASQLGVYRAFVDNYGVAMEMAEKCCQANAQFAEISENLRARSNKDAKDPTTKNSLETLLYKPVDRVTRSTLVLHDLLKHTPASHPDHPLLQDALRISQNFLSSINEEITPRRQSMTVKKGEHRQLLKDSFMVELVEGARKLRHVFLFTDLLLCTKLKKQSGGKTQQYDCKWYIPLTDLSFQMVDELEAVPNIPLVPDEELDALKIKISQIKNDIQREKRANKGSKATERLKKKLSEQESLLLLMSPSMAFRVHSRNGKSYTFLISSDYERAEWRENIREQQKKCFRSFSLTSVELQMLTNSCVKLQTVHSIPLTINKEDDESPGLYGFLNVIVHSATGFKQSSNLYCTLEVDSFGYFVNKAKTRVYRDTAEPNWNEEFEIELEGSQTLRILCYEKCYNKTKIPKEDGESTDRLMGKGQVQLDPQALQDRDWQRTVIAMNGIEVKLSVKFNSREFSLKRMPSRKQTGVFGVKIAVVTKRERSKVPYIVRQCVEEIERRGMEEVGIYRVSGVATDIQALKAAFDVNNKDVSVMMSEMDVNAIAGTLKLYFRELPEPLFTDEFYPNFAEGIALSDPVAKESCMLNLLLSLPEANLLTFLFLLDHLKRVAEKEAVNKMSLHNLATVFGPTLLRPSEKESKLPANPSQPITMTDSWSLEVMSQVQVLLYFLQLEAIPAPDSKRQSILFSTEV

COc1cc(C(=O)c2cn(-c3ccc(C)cc3)cc2-c2ccsc2)cc(OC)c1OC
inhibition [1]: Active
Activity (U-87 MG [2]): Active
IC50 (MCF7): 0.004 µM
IC50 [3]: 0.0186 µM
Activity (KBM5 [4]): 70%
inhibition (Tubulin (Homo sapiens) [5]): 90%
inhibition [6]: Active
Activity (U-87 MG [7]): Active
Activity (U-87 MG [8]): Active
IC50 (U-87 MG [9]): 0.0194 µM
Activity (KBM5 [10]): Active
Activity (KU812 cell line): Active
IC50 (KBM5 [11]): 0.0082 µM
Activity (KBM5 [12]): 56.7%
Emax (U-87 MG [13]): 55.6%
IC50 (SW480): 0.656 µM
Activity (KBM5 [14]): Active
Emax [15]: 48.5%
Activity (U-87 MG [16]): Active
IC50 (SW-620): 0.111 µM
IC50 (KBM5 [17]): 0.0088 µM
Activity (U-87 MG [18]): Active
Activity (U-87 MG [19]): Active
inhibition (Tubulin (Homo sapiens) [20]): 71%
Activity (KBM5 [21]): Active
